These results are taken from article PMC11091967, “Silicon-Rhodamine Functionalized Evocalcet Probes Potently and Selectively Label Calcium Sensing Receptors In Vitro, In Vivo, and Ex Vivo” (ACS Pharmacology & Translational Science, 2024).

One series has as its target T1, human CaSR (Homo sapiens, UniProt P41180).
T1 construct: host or cells: CCL39 hamster lung fibroblasts stably transfected (HCAR), Geneticin selection
T1 sequence (P41180 20-1078): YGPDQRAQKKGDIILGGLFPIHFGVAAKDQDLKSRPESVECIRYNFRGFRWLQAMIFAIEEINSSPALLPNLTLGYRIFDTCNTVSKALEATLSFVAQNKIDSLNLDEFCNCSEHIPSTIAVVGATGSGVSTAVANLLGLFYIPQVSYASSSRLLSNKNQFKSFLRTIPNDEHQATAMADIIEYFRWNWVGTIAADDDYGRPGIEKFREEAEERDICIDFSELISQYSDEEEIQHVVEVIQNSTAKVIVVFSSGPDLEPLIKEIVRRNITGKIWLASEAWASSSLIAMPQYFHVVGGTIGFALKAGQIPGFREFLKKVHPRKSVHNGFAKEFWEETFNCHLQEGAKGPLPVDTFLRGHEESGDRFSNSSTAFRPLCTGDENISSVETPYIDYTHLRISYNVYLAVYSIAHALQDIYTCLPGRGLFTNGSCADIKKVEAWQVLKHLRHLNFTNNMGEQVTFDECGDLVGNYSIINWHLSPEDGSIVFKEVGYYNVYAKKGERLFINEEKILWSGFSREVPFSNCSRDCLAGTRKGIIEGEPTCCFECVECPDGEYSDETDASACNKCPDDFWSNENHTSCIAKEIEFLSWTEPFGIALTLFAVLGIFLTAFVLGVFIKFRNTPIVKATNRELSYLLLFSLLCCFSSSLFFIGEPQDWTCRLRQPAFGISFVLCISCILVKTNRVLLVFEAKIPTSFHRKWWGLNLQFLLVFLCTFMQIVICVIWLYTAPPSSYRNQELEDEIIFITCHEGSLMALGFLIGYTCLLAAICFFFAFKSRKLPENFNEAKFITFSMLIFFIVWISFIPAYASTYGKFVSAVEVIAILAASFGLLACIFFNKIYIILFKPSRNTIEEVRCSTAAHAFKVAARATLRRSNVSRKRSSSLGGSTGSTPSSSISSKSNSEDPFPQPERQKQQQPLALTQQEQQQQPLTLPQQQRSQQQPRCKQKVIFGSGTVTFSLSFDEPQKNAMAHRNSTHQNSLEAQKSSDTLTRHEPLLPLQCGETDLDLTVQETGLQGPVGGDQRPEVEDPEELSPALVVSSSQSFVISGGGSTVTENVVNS
Nature of the series: FLIPR-based functional CaSR calcium assay in HCAR cells. The conditions noted are these: 5 min incubation of HCAR cells, 0.1% BSA. In kind it is cell-based.

Series [1] in a line: Photophysical characterization. In kind it is physicochemical. Further details: λex / λem: unit not given here. The settings on record: for quantum yield Φ: 94% ethanol, 750 nM, relative to Rhodamine B; for λem / λex: Table 1; for extinction coefficient ε: absorbance at 150–1350 nM, 1 cm cuvette.
The subject of series [2] is hair cells of the neuromasts within the lateral line organ. In words: In vivo labeling of neuromasts in zebrafish larvae. Further details: species or system zebrafish (Danio rerio). The settings on record: 4–6 dpf larvae; for fold increase in fluorescence intensity within the neuromasts: co-labeling with DiAsp; for normalized fluorescence of the neuromasts to the background fluorescence, mean and standard deviation: neuromasts identified with DiAsp. The procedure: (§1) For the neuromast labeling experiments, wild-type 4–6 days post fertilization (dpf) zebrafish larvae were incubated in 200 μL of E3 medium containing different doses of the SiR probes (500–5000 nM), 2.5 μM 4-(4-diethylaminostyryl)-1-methyl-pyridinium-iodid (DiAsp, Sigma, D3418), which specifically labels hair cells in the lateral line in 0.5% DMSO for 30 min (35). Next, washing and anesthesia were achieved by placing the larvae in a 35 mm imaging dish (MolBiTec, Imaging dish 1.5) which contained 500 μL of E3 medium with 168 mg/L MS-222 (Tricaine Mehanesulfonate, Sigma) for 10 min. After removing the solution, fish were side-embedded in the imaging dish using 500 μL of 0.75% low-melting temperature agarose (Sigma, A4018). Wide-field imaging was done using the Zeiss Axio Observer fluorescence microscope (LD A-Plan 10× objective, NA = 0.25), and confocal imaging was done using a Zeiss LSM 800 confocal fluorescence microscope (LD LCI Plan-Apochromat 25× objective, NA = 0.8).

Series [3] concerns human parathyroid adenomas. In words: Ex vivo labeling of surgically resected human parathyroid adenomas. The procedure: The part of the study involving human tissues has been registered at clinicaltirals.gov and can be retrieved under the ID: NCT03831620. The study was approved by the ethics commission of canton Bern, Switzerland (KEKBE 2018–02218). Written informed consent was obtained from all patients. Human parathyroid tissues were surgically resected and were immediately put on dry ice and stored at −80 °C. The tissues were thawed at 4 °C and were washed with PBS thoroughly. The labeling of the tissues was achieved using 500 nM EvoSiR4 for 30 min in PBS containing 0.1% BSA. After labeling, the tissues were washed twice with PBS containing 0.1% BSA. For evocalcet competition experiments, the tissues were coincubated with EvoSiR4 and evocalcet in a 1:5 molar ratio for 30 min and then washed twice with PBS containing 0.1% BSA. The images were acquired using an IVIS Spectrum in vivo imaging system with a λex of 780 nm and λem of 840 nm for the autofluorescence (ICG channel) and with a λex of 650 nm and λem of 670 nm for the EvoSiR label (Cy5 channel).

Series [4] can be described thus: Spectrofluorometric fluorescence in PBS and effect of pH. In kind it is physicochemical. The conditions noted are these: 750 nM in PBS, peak fluorescence at 670. The procedure: Spectrofluorometric measurements were carried out by using the Agilent Cary Eclipse instrument. The voltage of the photomultiplier tube (PMT) was set to 600 for EvoSiR4 and EvoSiR6, and for 500 for SiR (4). Fluorescence of the probes was measured at concentrations ranging from 30 to 3000 nM in PBS containing various amounts of bovine serum albumin (BSA) (Sigma, A7906). Quenching experiments for the calculation of BSA binding were performed by adding a 1:1 molar ratio of tannic acid dissolved in ddH2O (Sigma, 403040) to the solution prior to measuring fluorescence.

A further series has as its system zebrafish larvae. In words: Zebrafish startle reflex, tolerability and brain penetration with bath-applied probe. In kind it is in vivo, zebrafish (Danio rerio). The procedure:
as §1
For the behavioral analysis, wild-type 4–6 dpf zebrafish larvae were placed individually into custom-built sound delivery system described in a previous publication.[36] For acoustic stimulation, we used a 90 dB stimulus and recorded the subsequent behavioral responses using a high-speed camera (xiQ USB3 vision) at a frame rate of 500 fps using custom scripts written in Python. The camera was placed 30 cm above the sound delivery system. The latency of the startle reflex was quantified manually by using an LED flash (780 nm wavelength) in parallel with the time of stimulus delivery. Escape responses were quantified manually, where we considered a short-latency startle response between 2 and 16 ms and a long-latency startle response above 16 ms.

In a further series the test system is CYP2D6. More on the design: method as in PMID 29724589. The conditions noted are these: cited from earlier work.

In the case of `Cc1cc(C(=O)NCCCCNC(=O)Cc2ccc(N3CC[C@H](N[C@H](C)c4cccc5ccccc45)C3)cc2)ccc1C1=C2C=CC(=[N+](C)C)C=C2[Si](C)(C)c2cc(N(C)C)ccc21` [EvoSiR4], the EC50 on human CaSR (EC50, 1× wash, 1× wash) was determined as 0.38 ± 0.24 µM. In addition, on human CaSR (EC50, 3× wash, 3× wash), the EC50 amounted to 0.62 ± 0.31 µM. Besides, the EC50 at human CaSR (EC50, 5× wash, 5× wash) was 0.33 ± 0.21 µM. The half-maximal effective concentration (EC50) at human CaSR (EC50, no wash, no wash) was 0.037 ± 0.008 µM. Moreover, in series [1], the “fluorescence lifetime τ” value was found to be 2.43 ± 0.164 ns, the “quantum yield Φ” value is recorded as 0.288, the λem came to 670 and the λex amounted to 650. Moreover, the “extinction coefficient ε” value in series [1] was 14,175 M^–1 cm^–1. Also, in series [2], the “fold increase in fluorescence intensity within the neuromasts” value was determined as 5.7 fold; the “normalized fluorescence of the neuromasts to the background fluorescence, mean and standard deviation” value came to 5.71 ± 4.4. The “concentration above which marked increase in tissue fluorescence” value in series [3] (650 nm excitation) is listed as over 500 nM. The “decrease in fluorescence at pH above 10” value in series [4] was found to be 50%. The “effect on startle responses (percentage elicited, ratio of short-latency escapes, latency)” value in the series with zebrafish larvae (bath-applied 5 and 10 μM, acoustic stimulation) was “no significant difference”. Besides, the “entry into zebrafish CNS” value in the series with zebrafish larvae (bath-applied, Tol056 strain, confocal microscopy) is recorded as “does not enter the zebrafish CNS”. In addition, in the series on zebrafish larvae (bath-applied, larvae), the “concentration beyond which lethal” value is over 20 µM and the “concentration up to which no effect on basic locomotion capabilities” value is reported as “up to 10 μM”.

For `Cc1cc(C(=O)NCCCCCCNC(=O)Cc2ccc(N3CC[C@H](N[C@H](C)c4cccc5ccccc45)C3)cc2)ccc1C1=C2C=CC(=[N+](C)C)C=C2[Si](C)(C)c2cc(N(C)C)ccc21` [EvoSiR6], in series [1], the “fluorescence lifetime τ” value is given as 2.33 ± 0.135 ns, the “quantum yield Φ” value was determined as 0.278, the λem was found to be 670 and the λex is 650. For the same molecule, the “extinction coefficient ε” value in series [1] is reported as 16,601 M^–1 cm^–1. Besides, in series [2], the “fold increase in fluorescence intensity within the neuromasts” value was 5.6 fold; the “normalized fluorescence of the neuromasts to the background fluorescence, mean and standard deviation” value is reported as 5.6 ± 3.1.

Regarding `C[C@@H](N[C@H]1CCN(c2ccc(CC(=O)O)cc2)C1)c1cccc2ccccc12` [evocalcet], in the series with CYP2D6, the CYP2D6 inhibition result was “no direct CYP2D6 inhibition”. Besides, in series [3] (500 nM EvoSiR4 co-administered with 2.5 μM evocalcet), the “decrease in tissue fluorescence upon evocalcet competition” value is 64%.

As a reminder, the EC50 is the concentration at which the effect is half-maximal.
